Assay [1] concerns the target T1, gonococcal LOS sialyltransferase (Lst) (Neisseria gonorrhoeae, UniProt P72074).
T1 construct: served as substrates for gonococcal Lst in the context of live bacteria; endogenous in cells; host or cells: N. gonorrhoeae F62 ΔlgtD (live bacteria)
Format: cell-based, N. gonorrhoeae. The settings on record: CMP salt 30 μM (20 μg/ml), 2 h at 37° C. As for the experimental part: FIG. 1. Substrate specificity of gonococcal LOS sialyltransferase (Lst) N. gonorrhoeae strain F62 ΔIgtD was grown in standard gonococcal liquid media alone (‘No sialic acid’) or in media supplemented with CMP salts of the indicated sialic acid or nonulosonic acid, each at a concentration of 20 μg/ml (˜30 μM), for 2 h at 37° C. Bacteria were washed, pellets treated with protease K, lysed in 4×LDS buffer and lysates were separated on 12% Bis-Tris gels using MES running buffer. LOS was transferred to a PVDF membrane and probed with mAb 3F11 that recognizes the lacto-N-neotetraose only in the non-sialylated state; the addition of a sialic acid or nonulosonate residue abrogates mAb 3F11 binding (upper panel). LOS was also visualized by silver staining (middle panel). Sialylation or nonulosonate (NulO) modification was also quantified using whole cell ELISA with mAb 3F11 (lower graph).
To define the substrate specificity of gonococcal LOS sialyltransferase, N. gonorrhoeae F62 ΔIgtD was grown in media alone, or media that contained the CMP-activated derivatives of 7 nonulosonates (listed in Table 1), each at a concentration of 30 μM (20 μg/ml). Following incubation for 2 h at 37° C., bacteria were washed, lysed with protease K/LDS sample buffer and separated on 12% Bis-tris gels. Blots were probed with mAb 3F11, which binds to the terminal lactosamine residue of lacto-N-neotetraose (LNT); any extension beyond the terminal Gal (in this instance with a nonose) would abrogate 3F11 binding. […] Whole cell ELISA with mAb 3F11 confirmed results of western blotting (FIG. 1, lower graph).
Bacteria (F62 ΔIgtD) grown overnight on chocolate agar plates were suspended in gonococcal liquid media supplemented with IsoVitaleX (11) that contained specified concentrations of the CMP-nonulosonate. Bacteria were then incubated at 37° C. for the period specified in each experiment.
Gonococcal lysates treated with protease K (100 μg/ml) and NuPAGE® LDS Sample Buffer (4×) (Invitrogen) were separated on NuPAGE® 12% Bis-Tris (Invitrogen) gels using Novex® MES running buffer (Invitrogen) followed by sliver staining with the Bio-Rad Silver Stain Kit, or were transferred to an Immobilon PVDF membrane (Millipore). Membranes were blocked with PBS/1% milk and probed with tissue culture supernatants that contained mAb 3F11. mAb 3F11-reactive LOS bands were disclosed with anti-mouse IgM conjugated to alkaline phosphatase followed by the addition of BCIP®/NBT-Purple Liquid Substrate (Sigma).

Assay [2] has as its system N. gonorrhoeae F62 ΔIgtD. Format: cell-based. On the procedure:
FIG. 2. […] N. gonorrhoeae F62 ΔIgtD was grown in media alone (no CMP-sialic acid added), or media that contained 20 μg/ml (˜30 μM) of each of the indicated CMP-nonulosonates. Resistance of bacteria to complement-dependent killing in the presence of 3.3%, 6.7% or 10% normal human serum (NHS) was measured in serum bactericidal assays.
FIG. 5. […] N. gonorrhoeae F62 ΔIgtD was suspended in media containing 20 μg/ml (˜30 μM) CMP-Neu5Ac. Following 15 min of incubation at 37° C., CMP-Neu5Ac9Az or CMP-Leg5Ac7Ac (at concentrations of 20, 2 or 0.2 μg/ml final) were added and bacteria were incubated for 2 h. Serum bactericidal assays were then performed using 3.3% (solid black bars) or 10% (hatched bars) NHS. Controls included bacteria in media that lacked any CMP-nonulosonate, or bacteria that were incubated in CMP-Neu5Ac only. Y-axis, % survival.
We next determined the effects of incorporation of the CMP salts of five structural analogues of Neu5Ac (Neu5Gc, Neu5Ac9Ac, Neu5Ac9Az, Neu5Gc8Me and Leg5Ac7Ac) on the ability of N. gonorrhoeae F62 ΔIgtD to resist complement-dependent killing by normal human serum at concentrations of 10, 6.7 or 3.3%. Bacteria were grown either in media alone, or media supplemented with 30 μM (˜20 μg/ml) of each of the CMP-nonulosonates.
The ability of two of the CMP-nonulosonates, CMP-Neu5Ac9Az and CMP-Leg5Ac7Ac, to counter the ability of CMP-Neu5Ac to enhance serum resistance of N. gonorrrhoeae was then examined. The analogues were added at concentrations of 20, 2 or 0.2 μg/ml to growth media 15 min after the addition of CMP-Neu5Ac (20 μg/ml) to F62 ΔIgtD.
Serum bactericidal assays were performed as described previously (11). Bacteria harvested from an overnight culture on chocolate agar plates were grown in liquid media containing the specified concentration of CMP-nonulosonate as specified for each experiment. Approximately 2000 CFU of F62 ΔIgtD were incubated with NHS (concentration specified for each experiment). The final reaction volumes were maintained at 150 μl. […]

Assay [3] concerns N. gonorrhoeae F62 ΔIgtD. As to the kind of experiment: Flow cytometry for factor H binding to bacteria. Format: cell-based. On the procedure: FIG. 3. Effects of LOS modification with various nonulosonate analogues on fH binding to N. gonorrhoeae. N. gonorrhoeae F62 ΔIgtD was grown in media alone, or media supplemented with 20 μg/ml (˜30 μM) of each of the indicated CMP-nonulosonates. Binding of bacteria to fH (10 μg/ml) was measured by flow cytometry using polyclonal goat anti-human fH. The control indicates reaction mixtures that lacked fH. Y-axis, median fluorescence of fH binding. The mean (SD) of 2 independent repeats is shown.
FIG. 7. […] A. N. gonorrhoeae F62 ΔIgtD was incubated in media containing CMP-Neu5Ac (20 μg/ml), followed […] by the addition of either CMP-Neu5Ac9Az or CMP-Leg5Ac7Ac (20, 2 or 0.2 μg/ml). Bacteria were grown for 2 h and fH binding detected by FACS using polyclonal goat anti-human fH. The Y-axis represents median fluorescence. The mean (SEM) of two independent observations is shown. B. Development of serum resistance lags behind fH binding when measured as a function of time of exposure of bacteria to CMP-Neu5Ac. CMP-Neu5Ac (20 μg/ml) was added to media containing F62 ΔIgtD and bacteria were taken at the time points indicated on the X-axis and assayed for fH binding by FACS with anti-fH mAb 90× (left Y-axis; median fluorescence (SEM)), or tested for its ability to resist killing by 10% NHS (right Y-axis; percent survival). The data represent 2-3 independent experiments. C. Representative histograms of a fH binding FACS experiment.
The addition of a terminal Neu5Ac residue to LNT-expressing LOS enhances binding of the alternative pathway inhibitor, factor H, which contributes to the ability of sialylated gonococci to resist killing by complement (7). fH binding to N. gonorrhoeae F62 ΔIgtD grown in the presence of each of the CMP-nonulosonates (20 μg/ml or 30 μM) was examined (FIG. 3). […] Reducing the CMP-nonulosonate concentrations in growth media to 2 μg/ml (3 μM) yielded similar fH binding results (FIG. 9B). Further, modification of LOS with Neu5Ac or Neu5Gc yielded similar amounts of fH binding over CMP-sialic acid concentrations ranging from 0.5 to 4 μg/ml, with near maximal fH binding observed even at the lowest concentration tested (FIG. 9C).
fH binding to bacteria was performed using flow cytometry as described previously (14). Briefly, bacteria (F62 ΔIgtD) were harvested from chocolate agar plates and grown in liquid media that contained the specified concentration of the CMP-nonulosonate as described above. Bacteria were then washed with Hanks Balanced Salt Solution (HBSS) containing 1 mM Ca^2+ and 1 mM Mg^2+ (HBSS^++) and incubated with fH purified from human plasma (Complement Technology, Inc.; concentration specified for each experiment). Bound fH was detected using either anti-fH mAb (Quidel, catalog no. A254 (mAb 90×)) or goat anti-human fH, followed by FITC conjugated anti-mouse IgG or anti-goat IgG, respectively (Sigma); both Abs had similar performance characteristics. All reaction mixtures were carried out in HBSS^++/1% BSA in a final volume of 50 μl. Flow cytometry was performed using a FACSCalibur instrument (Becton Dickinson) and data were analyzed using FlowJo (version 7.2.5; Tree Star, Inc.).
A general note: In flow cytometry, cells or beads pass a laser one at a time.

“Also recorded” adds a separate entry of the source.

T1 sequence (P72074 whole entry): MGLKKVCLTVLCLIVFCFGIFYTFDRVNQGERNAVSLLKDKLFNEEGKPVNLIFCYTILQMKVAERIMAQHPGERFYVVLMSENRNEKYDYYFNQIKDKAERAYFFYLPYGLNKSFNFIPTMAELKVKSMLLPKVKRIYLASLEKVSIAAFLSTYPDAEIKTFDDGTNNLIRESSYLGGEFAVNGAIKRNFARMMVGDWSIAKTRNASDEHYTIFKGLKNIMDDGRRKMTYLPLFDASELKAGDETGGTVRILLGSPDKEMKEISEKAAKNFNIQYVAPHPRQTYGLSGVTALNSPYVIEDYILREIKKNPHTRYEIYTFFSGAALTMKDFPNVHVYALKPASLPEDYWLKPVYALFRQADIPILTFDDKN

As to `CC(=O)N[C@H]([C@@H]1O[C@](OP(=O)(O)OC[C@H]2O[C@@H](n3ccc(N)nc3=O)[C@H](O)[C@@H]2O)(C(=O)O)C[C@H](O)[C@@H]1NC(C)=O)[C@H](C)O` [CMP-Pse5Ac7Ac, reference compound], the “mAb 3F11 binding / incorporation of nonulosonate onto LNT LOS (use as Lst substrate)” value in assay [1] was “not incorporated; also recorded: not utilized”. The “bacterial survival / serum resistance” value in the assay with N. gonorrhoeae F62 ΔIgtD [2] (all serum concentrations tested (10, 6.7, 3.3%), 30 μM) was “did not affect serum resistance”.
On to `Nc1ccn([C@@H]2O[C@H](COP(=O)(O)O[C@@]3(C(=O)O)C[C@H](O)[C@@H](NC(=O)CO)[C@H]([C@H](O)[C@H](O)CO)O3)[C@@H](O)[C@H]2O)c(=O)n1` [CMP-Neu5Gc, CMP-5-hydroxyacetamido-3,5-dideoxy-D-glycero-D-galacto-nonulosonic acid, reference compound], for which the “mAb 3F11 binding / incorporation of nonulosonate onto LNT LOS (use as Lst substrate)” value in assay [1] is “decreased binding of mAb 3F11”. Besides, in the assay on N. gonorrhoeae F62 ΔIgtD [2] (CMP-nonulosonate 3 μM (~2 μg/ml), 10% serum), the “resistance to 10% serum” value is “conferred resistance”. Also, in the assay with N. gonorrhoeae F62 ΔIgtD [2] (summary Table 1), the Serum resistance entry was “high (>100% survival in 10% serum)”. Also, the fH binding entry in the assay with N. gonorrhoeae F62 ΔIgtD [3] (CMP-nonulosonate 20 μg/ml or 30 μM, vs unsialylated F62 ΔIgtD) is recorded as “Maximal”; with N. gonorrhoeae F62 ΔIgtD [3] (CMP-sialic acid 0.5 to 4 μg/ml, lowest concentration tested) it was “near maximal”; with N. gonorrhoeae F62 ΔIgtD [3] (summary Table 1), “high”.

Source of the values: US10865222B2, “Neisseria gonorrhoeae therapeutic based on CMP-nonulosonate sugars” (priority 2014, dated 2020).
